Assays:
Cholinesterase = Cholinesterase (Equus caballus, UniProt P81908); experiment: Inhibition of equine serum BChE using butyrylthiocholine iodide as substrate after 2 mins by Ellman's method
Acetylcholinesterase = Acetylcholinesterase (Electrophorus electricus, UniProt O42275)
Description: Inhibition of electric eel AChE using acetylthiocholine iodide as substrate after 2 mins by Ellman's method

[1] = Selectivity ratio of IC50 for equine serum BChE to IC50 for electric eel AChE

Sequence of Cholinesterase (P81908 whole entry): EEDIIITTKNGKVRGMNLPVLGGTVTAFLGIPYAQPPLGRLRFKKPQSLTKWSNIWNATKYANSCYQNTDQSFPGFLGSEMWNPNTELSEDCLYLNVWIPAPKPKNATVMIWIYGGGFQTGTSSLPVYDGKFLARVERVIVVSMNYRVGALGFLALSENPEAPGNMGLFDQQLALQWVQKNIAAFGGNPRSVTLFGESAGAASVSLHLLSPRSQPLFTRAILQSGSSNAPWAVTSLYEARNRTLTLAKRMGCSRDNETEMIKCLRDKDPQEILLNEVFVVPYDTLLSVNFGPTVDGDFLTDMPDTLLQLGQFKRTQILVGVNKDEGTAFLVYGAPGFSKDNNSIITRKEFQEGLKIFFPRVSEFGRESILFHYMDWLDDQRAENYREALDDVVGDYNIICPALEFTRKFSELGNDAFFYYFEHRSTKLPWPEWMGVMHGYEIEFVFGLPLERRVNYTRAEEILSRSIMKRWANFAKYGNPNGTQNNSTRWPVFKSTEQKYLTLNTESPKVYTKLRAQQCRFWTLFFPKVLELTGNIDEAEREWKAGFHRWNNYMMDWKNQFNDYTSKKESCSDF
Sequence of Acetylcholinesterase (O42275 whole entry): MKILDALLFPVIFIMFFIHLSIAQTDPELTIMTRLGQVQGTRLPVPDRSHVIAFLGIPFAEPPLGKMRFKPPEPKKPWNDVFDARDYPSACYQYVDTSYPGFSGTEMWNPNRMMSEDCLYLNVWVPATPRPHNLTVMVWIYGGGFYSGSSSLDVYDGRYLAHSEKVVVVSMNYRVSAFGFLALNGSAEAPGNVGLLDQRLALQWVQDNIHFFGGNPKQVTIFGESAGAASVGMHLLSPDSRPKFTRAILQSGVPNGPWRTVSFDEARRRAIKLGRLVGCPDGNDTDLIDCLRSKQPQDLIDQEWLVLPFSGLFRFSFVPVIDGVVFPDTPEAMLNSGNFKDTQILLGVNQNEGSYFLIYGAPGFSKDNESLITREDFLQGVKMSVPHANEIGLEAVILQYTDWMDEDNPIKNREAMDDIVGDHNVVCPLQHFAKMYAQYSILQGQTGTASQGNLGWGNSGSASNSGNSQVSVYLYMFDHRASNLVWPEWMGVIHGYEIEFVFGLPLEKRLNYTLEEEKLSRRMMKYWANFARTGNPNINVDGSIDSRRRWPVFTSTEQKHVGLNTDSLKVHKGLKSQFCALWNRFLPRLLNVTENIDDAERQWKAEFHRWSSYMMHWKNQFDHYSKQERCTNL

SMILES | IC50 (Cholinesterase) [nM] | IC50 (Acetylcholinesterase) [nM] | Ratio IC50 [1]
N#CC1=C(N)Oc2c(c(=O)oc3ccccc23)C1c1cc[n+](Cc2ccc(Cl)cc2Cl)cc1 (stereo not given) | 566 | 831 | 0.68
N#CC1=C(N)Oc2c(c(=O)oc3ccccc23)C1c1cc[n+](Cc2ccc(Cl)c(Cl)c2)cc1 (stereo not given) | 1270 | 44 | 28.9
N#CC1=C(N)Oc2c(c(=O)oc3ccccc23)C1c1ccc[n+](Cc2ccccc2F)c1 (stereo not given) | 41000 | 1800 | 22.8
N#CC1=C(N)Oc2c(c(=O)oc3ccccc23)C1c1cc[n+](Cc2cccc(Cl)c2)cc1 (stereo not given) | 21800 | 480 | 45.4
N#CC1=C(N)Oc2c(c(=O)oc3ccccc23)C1c1cc[n+](Cc2ccc(F)cc2)cc1 (stereo not given) | 1840 | 38 | 48.4
N#CC1=C(N)Oc2c(c(=O)oc3ccccc23)C1c1ccc[n+](Cc2ccc(F)cc2)c1 (stereo not given) | 2170 | 2170 | 1
N#CC1=C(N)Oc2c(c(=O)oc3ccccc23)C1c1cc[n+](Cc2cccc(F)c2)cc1 (stereo not given) | > 50000 | 2800 | > 17.8
Cc1cccc(C[n+]2cccc(C3C(C#N)=C(N)Oc4c3c(=O)oc3ccccc43)c2)c1 (stereo not given) | 14300 | 790 | 18.1
N#CC1=C(N)Oc2c(c(=O)oc3ccccc23)C1c1cc[n+](Cc2ccccc2F)cc1 (stereo not given) | 36000 | 2900 | 12.4
Cc1cccc(C[n+]2ccc(C3C(C#N)=C(N)Oc4c3c(=O)oc3ccccc43)cc2)c1 (stereo not given) | 5500 | 1900 | 2.6
N#CC1=C(N)Oc2c(c(=O)oc3ccccc23)C1c1ccc[n+](Cc2ccccc2Cl)c1 (stereo not given) | 11200 | 1000 | 11.2
N#CC1=C(N)Oc2c(c(=O)oc3ccccc23)C1c1cc[n+](Cc2ccccc2Cl)cc1 (stereo not given) | 4800 | 1500 | 3.2
Cc1ccccc1C[n+]1ccc(C2C(C#N)=C(N)Oc3c2c(=O)oc2ccccc32)cc1 (stereo not given) | 17800 | 3700 | 4.8
N#CC1=C(N)Oc2c(c(=O)oc3ccccc23)C1c1ccc[n+](Cc2cccc(F)c2)c1 (stereo not given) | > 50000 | 2000 | > 25
N#CC1=C(N)Oc2c(c(=O)oc3ccccc23)C1c1ccc[n+](Cc2cccc(Cl)c2)c1 (stereo not given) | 38400 | 7400 | 5.2

Reference: ChEMBL document CHEMBL2424537, “Design, synthesis, biological evaluation and docking study of 5-oxo-4,5-dihydropyrano[3,2-c]chromene derivatives as acetylcholinesterase and butyrylcholinesterase inhibitors” (Eur J Med Chem, 2013)
